ChEMBL document CHEMBL2440022, “Development of a novel fluorine-18 labeled deuterated fluororasagiline ([(18)F]fluororasagiline-D2) radioligand for PET studies of monoamino oxidase B (MAO-B)” (Bioorg Med Chem, 2013)
pIC50: −log10 of the molar value.

What was measured:
[1] = Drug recovery in cynomolgus monkey plasma at 168 to 174 MBq, iv by RP-HPLC analysis in presence of acetonitrile; format: ADME, organism-based, Macaca fascicularis; details: read-out: Drug recovery
Thalamus [2] = assay: Drug uptake in cynomolgus monkey thalamus at 168 to 174 MBq, iv after 60 mins by PET analysis in presence of L-deprenyl; format: ADME, organism-based, Macaca fascicularis; details: in vivo, 1 h
[3] = Stability in cynomolgus monkey plasma assessed as unchanged parent compound at 168 to 174 MBq, iv after 15 mins by RP-HPLC analysis; format: ADME, organism-based, Macaca fascicularis; details: read-out: Stability
[4] = Drug uptake in cynomolgus monkey cerebellum at 168 to 174 MBq, iv after 60 mins by PET analysis; format: ADME, organism-based, Macaca fascicularis; details: in vivo, 1 h
[5] = Stability in cynomolgus monkey plasma assessed as unchanged parent compound at 168 to 174 MBq, iv after 120 mins by RP-HPLC analysis; format: ADME, organism-based, Macaca fascicularis; details: read-out: Stability
[6] = Drug uptake in cynomolgus monkey striatum at 168 to 174 MBq, iv after 60 mins by PET analysis; format: ADME, organism-based, Macaca fascicularis; details: in vivo, 1 h
[7] = Drug uptake in cynomolgus monkey striatum at 168 to 174 MBq, iv after 60 mins by PET analysis in presence of L-deprenyl; format: ADME, organism-based, Macaca fascicularis; details: in vivo, 1 h
Cynomolgus monkey [8] = assay: Drug metabolism in cynomolgus monkey plasma assessed as radiometabolite M2 retention time at 168 to 174 MBq, iv by RP-HPLC analysis; format: ADME, organism-based, Macaca fascicularis
Thalamus [9] = assay: Drug uptake in cynomolgus monkey thalamus at 168 to 174 MBq, iv after 60 mins by PET analysis; format: ADME, organism-based, Macaca fascicularis; details: in vivo, 1 h
Cynomolgus monkey [10] = assay: Drug metabolism in cynomolgus monkey plasma assessed as radiometabolite M1 retention time at 168 to 174 MBq, iv RP-HPLC analysis; format: ADME, organism-based, Macaca fascicularis
[11] = Drug uptake in cynomolgus monkey cerebellum at 168 to 174 MBq, iv after 60 mins by PET analysis in presence of L-deprenyl; format: ADME, organism-based, Macaca fascicularis; details: in vivo, 1 h
[12] = Chemical stability of the compound in PBS at pH 7.4 after 180 mins; format: physicochemical; details: read-out: Stability
[13] = Drug uptake in cynomolgus monkey cortex at 168 to 174 MBq, iv after 60 mins by PET analysis; format: ADME, organism-based, Macaca fascicularis; details: in vivo, 1 h
Brain = assay: Drug uptake in cynomolgus monkey brain at 168 to 174 MBq, iv after 4 mins by PET analysis; format: ADME, organism-based, Macaca fascicularis; details: in vivo
[14] = Drug uptake in cynomolgus monkey cortex at 168 to 174 MBq, iv after 60 mins by PET analysis in presence of L-deprenyl; format: ADME, organism-based, Macaca fascicularis; details: in vivo, 1 h
[15] = Stability in cynomolgus monkey plasma assessed as unchanged parent compound at 168 to 174 MBq, iv after 45 mins by RP-HPLC analysis; format: ADME, organism-based, Macaca fascicularis; details: read-out: Stability
[16] = target: T1, Amine oxidase [flavin-containing] B (Homo sapiens, UniProt P27338); assay: Inhibition of recombinant human MAO-B expressed in insect cells using kynuramine as substrate assessed as formation of 4-hydroxyquinoline measured every 5 mins for 30 mins; format: cell-based
T1 sequence (P27338 whole entry): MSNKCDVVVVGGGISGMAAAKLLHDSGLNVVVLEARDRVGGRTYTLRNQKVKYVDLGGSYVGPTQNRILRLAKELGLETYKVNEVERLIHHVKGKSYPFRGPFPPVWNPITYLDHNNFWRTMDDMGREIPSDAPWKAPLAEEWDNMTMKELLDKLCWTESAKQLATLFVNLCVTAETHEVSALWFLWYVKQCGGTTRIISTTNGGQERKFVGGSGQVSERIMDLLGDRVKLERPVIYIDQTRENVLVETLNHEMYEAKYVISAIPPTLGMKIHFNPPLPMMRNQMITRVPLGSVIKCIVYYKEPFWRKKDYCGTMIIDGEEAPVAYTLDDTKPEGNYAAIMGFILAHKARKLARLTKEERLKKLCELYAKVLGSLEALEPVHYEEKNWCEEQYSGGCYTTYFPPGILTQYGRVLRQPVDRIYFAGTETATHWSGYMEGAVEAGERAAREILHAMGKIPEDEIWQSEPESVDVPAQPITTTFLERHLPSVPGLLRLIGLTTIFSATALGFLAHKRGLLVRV

Homo sapiens = organism: Homo sapiens; assay: Selectivity ratio of IC50 for recombinant human MAO-B to IC50 for recombinant human MAO-A; details: tested as the 2H-labelled form
[17] = target: T2, Amine oxidase [flavin-containing] A (Homo sapiens, UniProt P21397); assay: Inhibition of recombinant human MAO-A expressed in insect cells using kynuramine as substrate assessed as formation of 4-hydroxyquinoline measured every 5 mins for 30 mins
T2 sequence (P21397 whole entry): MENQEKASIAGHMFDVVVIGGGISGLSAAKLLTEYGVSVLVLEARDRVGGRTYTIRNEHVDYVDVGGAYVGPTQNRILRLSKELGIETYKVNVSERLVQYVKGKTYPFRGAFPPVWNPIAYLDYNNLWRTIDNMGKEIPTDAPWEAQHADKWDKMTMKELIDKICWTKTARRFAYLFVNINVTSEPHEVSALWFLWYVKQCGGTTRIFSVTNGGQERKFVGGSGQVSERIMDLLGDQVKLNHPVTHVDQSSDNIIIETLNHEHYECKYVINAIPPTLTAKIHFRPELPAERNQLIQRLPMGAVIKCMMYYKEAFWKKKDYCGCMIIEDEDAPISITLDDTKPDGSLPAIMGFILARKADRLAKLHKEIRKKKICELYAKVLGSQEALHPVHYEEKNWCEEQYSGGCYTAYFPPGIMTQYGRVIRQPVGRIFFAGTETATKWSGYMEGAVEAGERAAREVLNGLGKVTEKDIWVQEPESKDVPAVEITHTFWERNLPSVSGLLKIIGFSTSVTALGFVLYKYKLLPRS

[2H]C([2H])(C#C)N[C@@H]1c2ccccc2C[C@H]1[18F] [[18F]FLUORORASAGILINE-D2]
recovery [1]: > 95%
SUV (Thalamus [2]): 0.78%
remaining at 0.25 h [3]: 75%
SUV [4]: 0.99%
remaining at 2 h [5]: 20%
SUV [6]: 1.38%
SUV [7]: 0.77%
Retention_time (Cynomolgus monkey [8]): 6.7 min
SUV (Thalamus [9]): 1.46%
Retention_time (Cynomolgus monkey [10]): 2.9 min
SUV [11]: 0.54%
remaining at 3 h [12]: > 97%
SUV [13]: 1.1%
SUV (Brain): 270%
SUV [14]: 0.66%
remaining at 0.75 h [15]: 50%

C#CCN[C@H]1c2ccccc2C[C@@H]1F [FLUORORASAGILINE]
pIC50 [16]: 7.57

C#CCN[C@H]1c2ccccc2C[C@@H]1[18F] [[18F]FLUORORASAGILINE]
remaining at 2 h [5]: 35%
remaining at 0.75 h [15]: 55%

C#CCN[C@@H]1c2ccccc2C[C@H]1F
Ratio IC50 (Homo sapiens): 19

[2H]C([2H])(C#C)N[C@@H]1c2ccccc2C[C@H]1F
pIC50 [17]: 5.00
pIC50 [16]: 6.76
